# Source: patent US11684607B2, “Secnidazole for use in the treatment of bacterial vaginosis” (priority 2014, dated 2023)
# Test system: bacterial vaginosis
# Test: Telephone diary questionnaire on vaginal discharge and odor (five point scale), mITT population
# Assay type: in vivo, human
# Conditions: for proportion of women reporting 3-5 for vaginal discharge / proportion of women reporting 3-5 for vaginal odor / proportion of women reporting 4-5 for vaginal discharge / proportion of women reporting 4-5 for vaginal odor: 2 g dose; for Discharge 1 point (Normal/Not an Issue): number of women / Discharge 1 point (Normal/Not an Issue): proportion of women / Discharge 2 points (Mildly Abnormal): number of women / Discharge 2 points (Mildly Abnormal): proportion of women / Discharge 3 points (Moderately Abnormal): number of women / Discharge 3 points (Moderately Abnormal): proportion of women / Discharge 4 points (Severely Abnormal): number of women / Discharge 4 points (Severely Abnormal): proportion of women / Discharge 5 points (Very Severely Abnormal): number of women / Discharge 5 points (Very Severely Abnormal): proportion of women / Odor 1 point (Normal/Not an Issue): number of women / Odor 1 point (Normal/Not an Issue): proportion of women / Odor 2 points (Mildly Abnormal): number of women / Odor 2 points (Mildly Abnormal): proportion of women / Odor 3 points (Moderately Abnormal): number of women / Odor 3 points (Moderately Abnormal): proportion of women / Odor 4 points (Severely Abnormal): number of women / Odor 4 points (Severely Abnormal): proportion of women / Odor 5 points (Very Severely Abnormal): number of women / Odor 5 points (Very Severely Abnormal): proportion of women: 2 g
smiles,measurement,setting,value
"Cc1ncc([N+](=O)[O-])n1CC(C)O (stereo not shown) [SYM-1219, 1-(2-hydroxypropyl)-2-methyl-5-nitromidazole]",proportion of women reporting 3-5 for vaginal discharge,day 1,59%
same,proportion of women reporting 3-5 for vaginal odor,day 1,66%
same,proportion of women reporting 4-5 for vaginal discharge,day 1,36%
same,proportion of women reporting 4-5 for vaginal odor,day 1,38%
same,proportion of women reporting 3-5 for vaginal discharge,day 3 (~48 hours),30%
same,proportion of women reporting 3-5 for vaginal odor,day 3 (~48 hours),20%
same,proportion of women reporting 4-5 for vaginal discharge,day 3 (~48 hours),11%
same,proportion of women reporting 4-5 for vaginal odor,day 3 (~48 hours),9%
same,proportion of women reporting 3-5 for vaginal discharge,day 7,14%
same,proportion of women reporting 3-5 for vaginal odor,day 7,9%
same,proportion of women reporting 4-5 for vaginal discharge,day 7,0%
same,proportion of women reporting 4-5 for vaginal odor,day 7,0%
same,Discharge 1 point (Normal/Not an Issue): number of women,Day 1,6
same,Discharge 1 point (Normal/Not an Issue): proportion of women,Day 1,10%
same,Discharge 2 points (Mildly Abnormal): number of women,Day 1,18
same,Discharge 2 points (Mildly Abnormal): proportion of women,Day 1,31%
same,Discharge 3 points (Moderately Abnormal): number of women,Day 1,13
same,Discharge 3 points (Moderately Abnormal): proportion of women,Day 1,22%
same,Discharge 4 points (Severely Abnormal): number of women,Day 1,17
same,Discharge 4 points (Severely Abnormal): proportion of women,Day 1,29%
same,Discharge 5 points (Very Severely Abnormal): number of women,Day 1,4
same,Discharge 5 points (Very Severely Abnormal): proportion of women,Day 1,7%
same,Odor 1 point (Normal/Not an Issue): number of women,Day 1,8
same,Odor 1 point (Normal/Not an Issue): proportion of women,Day 1,14%
same,Odor 2 points (Mildly Abnormal): number of women,Day 1,12
same,Odor 2 points (Mildly Abnormal): proportion of women,Day 1,21%
same,Odor 3 points (Moderately Abnormal): number of women,Day 1,16
same,Odor 3 points (Moderately Abnormal): proportion of women,Day 1,28%
same,Odor 4 points (Severely Abnormal): number of women,Day 1,17
same,Odor 4 points (Severely Abnormal): proportion of women,Day 1,29%
same,Odor 5 points (Very Severely Abnormal): number of women,Day 1,5
same,Odor 5 points (Very Severely Abnormal): proportion of women,Day 1,9%
same,Discharge 1 point (Normal/Not an Issue): number of women,Day 2,9
same,Discharge 1 point (Normal/Not an Issue): proportion of women,Day 2,17%
same,Discharge 2 points (Mildly Abnormal): number of women,Day 2,20
same,Discharge 2 points (Mildly Abnormal): proportion of women,Day 2,38%
same,Discharge 3 points (Moderately Abnormal): number of women,Day 2,15
same,Discharge 3 points (Moderately Abnormal): proportion of women,Day 2,29%
same,Discharge 4 points (Severely Abnormal): number of women,Day 2,3
same,Discharge 4 points (Severely Abnormal): proportion of women,Day 2,6%
same,Discharge 5 points (Very Severely Abnormal): number of women,Day 2,5
same,Discharge 5 points (Very Severely Abnormal): proportion of women,Day 2,10%
same,Odor 1 point (Normal/Not an Issue): number of women,Day 2,10
same,Odor 1 point (Normal/Not an Issue): proportion of women,Day 2,19%
same,Odor 2 points (Mildly Abnormal): number of women,Day 2,23
same,Odor 2 points (Mildly Abnormal): proportion of women,Day 2,44%
same,Odor 3 points (Moderately Abnormal): number of women,Day 2,10
same,Odor 3 points (Moderately Abnormal): proportion of women,Day 2,19%
same,Odor 4 points (Severely Abnormal): number of women,Day 2,8
same,Odor 4 points (Severely Abnormal): proportion of women,Day 2,15%
same,Odor 5 points (Very Severely Abnormal): number of women,Day 2,1
same,Odor 5 points (Very Severely Abnormal): proportion of women,Day 2,2%
same,Discharge 1 point (Normal/Not an Issue): number of women,Day 3,13
same,Discharge 1 point (Normal/Not an Issue): proportion of women,Day 3,24%
same,Discharge 2 points (Mildly Abnormal): number of women,Day 3,25
same,Discharge 2 points (Mildly Abnormal): proportion of women,Day 3,46%
same,Discharge 3 points (Moderately Abnormal): number of women,Day 3,10
same,Discharge 3 points (Moderately Abnormal): proportion of women,Day 3,19%
same,Discharge 4 points (Severely Abnormal): number of women,Day 3,3
same,Discharge 4 points (Severely Abnormal): proportion of women,Day 3,6%
same,Discharge 5 points (Very Severely Abnormal): number of women,Day 3,3
same,Discharge 5 points (Very Severely Abnormal): proportion of women,Day 3,6%
same,Odor 1 point (Normal/Not an Issue): number of women,Day 3,20
same,Odor 1 point (Normal/Not an Issue): proportion of women,Day 3,37%
same,Odor 2 points (Mildly Abnormal): number of women,Day 3,23
same,Odor 2 points (Mildly Abnormal): proportion of women,Day 3,43%
same,Odor 3 points (Moderately Abnormal): number of women,Day 3,6
same,Odor 3 points (Moderately Abnormal): proportion of women,Day 3,11%
same,Odor 4 points (Severely Abnormal): number of women,Day 3,4
same,Odor 4 points (Severely Abnormal): proportion of women,Day 3,7%
same,Odor 5 points (Very Severely Abnormal): number of women,Day 3,1
same,Odor 5 points (Very Severely Abnormal): proportion of women,Day 3,2%
same,Discharge 1 point (Normal/Not an Issue): number of women,Day 4,19
same,Discharge 1 point (Normal/Not an Issue): proportion of women,Day 4,35%
same,Discharge 2 points (Mildly Abnormal): number of women,Day 4,22
same,Discharge 2 points (Mildly Abnormal): proportion of women,Day 4,40%
same,Discharge 3 points (Moderately Abnormal): number of women,Day 4,8
same,Discharge 3 points (Moderately Abnormal): proportion of women,Day 4,15%
same,Discharge 4 points (Severely Abnormal): number of women,Day 4,5
same,Discharge 4 points (Severely Abnormal): proportion of women,Day 4,9%
same,Discharge 5 points (Very Severely Abnormal): number of women,Day 4,1
same,Discharge 5 points (Very Severely Abnormal): proportion of women,Day 4,2%
same,Odor 1 point (Normal/Not an Issue): number of women,Day 4,27
same,Odor 1 point (Normal/Not an Issue): proportion of women,Day 4,49%
same,Odor 2 points (Mildly Abnormal): number of women,Day 4,18
same,Odor 2 points (Mildly Abnormal): proportion of women,Day 4,33%
same,Odor 3 points (Moderately Abnormal): number of women,Day 4,6
same,Odor 3 points (Moderately Abnormal): proportion of women,Day 4,11%
same,Odor 4 points (Severely Abnormal): number of women,Day 4,4
same,Odor 4 points (Severely Abnormal): proportion of women,Day 4,7%
same,Odor 5 points (Very Severely Abnormal): number of women,Day 4,0
same,Odor 5 points (Very Severely Abnormal): proportion of women,Day 4,0%
same,Discharge 1 point (Normal/Not an Issue): number of women,Day 5,21
same,Discharge 1 point (Normal/Not an Issue): proportion of women,Day 5,43%
same,Discharge 2 points (Mildly Abnormal): number of women,Day 5,17
same,Discharge 2 points (Mildly Abnormal): proportion of women,Day 5,35%
same,Discharge 3 points (Moderately Abnormal): number of women,Day 5,4
same,Discharge 3 points (Moderately Abnormal): proportion of women,Day 5,8%
same,Discharge 4 points (Severely Abnormal): number of women,Day 5,6
same,Discharge 4 points (Severely Abnormal): proportion of women,Day 5,12%
same,Discharge 5 points (Very Severely Abnormal): number of women,Day 5,1
same,Discharge 5 points (Very Severely Abnormal): proportion of women,Day 5,2%
same,Odor 1 point (Normal/Not an Issue): number of women,Day 5,28
same,Odor 1 point (Normal/Not an Issue): proportion of women,Day 5,58%
same,Odor 2 points (Mildly Abnormal): number of women,Day 5,12
same,Odor 2 points (Mildly Abnormal): proportion of women,Day 5,25%
same,Odor 3 points (Moderately Abnormal): number of women,Day 5,5
same,Odor 3 points (Moderately Abnormal): proportion of women,Day 5,10%
same,Odor 4 points (Severely Abnormal): number of women,Day 5,3
same,Odor 4 points (Severely Abnormal): proportion of women,Day 5,6%
same,Odor 5 points (Very Severely Abnormal): number of women,Day 5,0
same,Odor 5 points (Very Severely Abnormal): proportion of women,Day 5,0%
same,Discharge 1 point (Normal/Not an Issue): number of women,Day 6,22
same,Discharge 1 point (Normal/Not an Issue): proportion of women,Day 6,47%
same,Discharge 2 points (Mildly Abnormal): number of women,Day 6,15
same,Discharge 2 points (Mildly Abnormal): proportion of women,Day 6,32%
same,Discharge 3 points (Moderately Abnormal): number of women,Day 6,7
same,Discharge 3 points (Moderately Abnormal): proportion of women,Day 6,15%
same,Discharge 4 points (Severely Abnormal): number of women,Day 6,2
same,Discharge 4 points (Severely Abnormal): proportion of women,Day 6,4%
same,Discharge 5 points (Very Severely Abnormal): number of women,Day 6,1
same,Discharge 5 points (Very Severely Abnormal): proportion of women,Day 6,2%
same,Odor 1 point (Normal/Not an Issue): number of women,Day 6,29
same,Odor 1 point (Normal/Not an Issue): proportion of women,Day 6,62%
same,Odor 2 points (Mildly Abnormal): number of women,Day 6,12
same,Odor 2 points (Mildly Abnormal): proportion of women,Day 6,26%
same,Odor 3 points (Moderately Abnormal): number of women,Day 6,5
same,Odor 3 points (Moderately Abnormal): proportion of women,Day 6,11%
same,Odor 4 points (Severely Abnormal): number of women,Day 6,1
same,Odor 4 points (Severely Abnormal): proportion of women,Day 6,2%
same,Odor 5 points (Very Severely Abnormal): number of women,Day 6,0
same,Odor 5 points (Very Severely Abnormal): proportion of women,Day 6,0%
same,Discharge 1 point (Normal/Not an Issue): number of women,Day 7,24
same,Discharge 1 point (Normal/Not an Issue): proportion of women,Day 7,55%
same,Discharge 2 points (Mildly Abnormal): number of women,Day 7,14
same,Discharge 2 points (Mildly Abnormal): proportion of women,Day 7,32%
same,Discharge 3 points (Moderately Abnormal): number of women,Day 7,6
same,Discharge 3 points (Moderately Abnormal): proportion of women,Day 7,14%
same,Discharge 4 points (Severely Abnormal): number of women,Day 7,0
same,Discharge 4 points (Severely Abnormal): proportion of women,Day 7,0%
same,Discharge 5 points (Very Severely Abnormal): number of women,Day 7,0
same,Discharge 5 points (Very Severely Abnormal): proportion of women,Day 7,0%
same,Odor 1 point (Normal/Not an Issue): number of women,Day 7,33
same,Odor 1 point (Normal/Not an Issue): proportion of women,Day 7,75%
same,Odor 2 points (Mildly Abnormal): number of women,Day 7,7
same,Odor 2 points (Mildly Abnormal): proportion of women,Day 7,16%
same,Odor 3 points (Moderately Abnormal): number of women,Day 7,4
same,Odor 3 points (Moderately Abnormal): proportion of women,Day 7,9%
same,Odor 4 points (Severely Abnormal): number of women,Day 7,0
same,Odor 4 points (Severely Abnormal): proportion of women,Day 7,0%
same,Odor 5 points (Very Severely Abnormal): number of women,Day 7,0
same,Odor 5 points (Very Severely Abnormal): proportion of women,Day 7,0%
same,Discharge 1 point (Normal/Not an Issue): number of women,EOS,36
same,Discharge 1 point (Normal/Not an Issue): proportion of women,EOS,68%
same,Discharge 2 points (Mildly Abnormal): number of women,EOS,9
same,Discharge 2 points (Mildly Abnormal): proportion of women,EOS,17%
same,Discharge 3 points (Moderately Abnormal): number of women,EOS,4
same,Discharge 3 points (Moderately Abnormal): proportion of women,EOS,8%
same,Discharge 4 points (Severely Abnormal): number of women,EOS,3
same,Discharge 4 points (Severely Abnormal): proportion of women,EOS,6%
same,Discharge 5 points (Very Severely Abnormal): number of women,EOS,1
same,Discharge 5 points (Very Severely Abnormal): proportion of women,EOS,2%
same,Odor 1 point (Normal/Not an Issue): number of women,EOS,36
same,Odor 1 point (Normal/Not an Issue): proportion of women,EOS,69%
same,Odor 2 points (Mildly Abnormal): number of women,EOS,7
same,Odor 2 points (Mildly Abnormal): proportion of women,EOS,13%
same,Odor 3 points (Moderately Abnormal): number of women,EOS,9
same,Odor 3 points (Moderately Abnormal): proportion of women,EOS,17%
same,Odor 4 points (Severely Abnormal): number of women,EOS,0
same,Odor 4 points (Severely Abnormal): proportion of women,EOS,0%
same,Odor 5 points (Very Severely Abnormal): number of women,EOS,0
same,Odor 5 points (Very Severely Abnormal): proportion of women,EOS,0%
